Assay results published in BindingDB's records for patent US20230348442 (Idorsia Pharmaceuticals, 2023).

molecular target: Galectin-1 (Homo sapiens, UniProt P09382); assay: Biological Assay
Protocol: (§1) The inhibitory activity of compounds is determined in competitive binding assays. This spectrophotometric assay measures the binding of biotinylated human Gal-3 (hGal-3) or human Gal-1 (hGal-1), respectively, to a microplate-adsorbed glycoprotein, asialofetuin (ASF) (Proc Natl Acad Sci USA. 2013 Mar. 26; 110(13):5052-7.). Alternatively, and preferably, a human Gal-1 version in which all six cysteines are substituted by serines may be used. Briefly, compounds are serially diluted in DMSO (working dilutions). ASF-coated 384 well plates are supplemented with 22.8 μL/well of biotinylated hGal-3 or hGal-1 in assay buffer (i.e. 300-1000 ng/mL biotinylated hGal-3 or hGal-1) to which 1.2 μL of compound working dilutions are added and mixed. Plates are incubated for 3 hours at 4° C., then washed with cold assay buffer (3×50 uL), incubated for 1 hour with 25 μL/well of a streptavidin-peroxidase solution (diluted in assay buffer to 80 ng/mL) at 4° C., followed by further washing steps with assay buffer (3×50 uL). Finally, 25 μL/well of ABTS substrate is added.

Chain of Galectin-1 (P09382 whole entry): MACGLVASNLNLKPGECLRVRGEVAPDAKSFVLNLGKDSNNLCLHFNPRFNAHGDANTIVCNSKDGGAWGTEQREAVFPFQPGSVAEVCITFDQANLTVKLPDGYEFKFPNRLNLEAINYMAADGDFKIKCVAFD

| IC50 | SMILES |
| --- | --- |
| 2.09 µM | O=C([C@@H]1O[C@H](CO)[C@H](O)[C@H](n2cc(-c3cc(F)c(F)c(F)c3)nn2)[C@H]1O)N(c1cc(Cl)cc(Cl)c1)[C@H]1CCC[C@@H]1O [US20230348442, Example 1H.1.2] |

molecular target: Galectin-3 (Homo sapiens, UniProt P17931); assay: Biological Assay
Protocol: as §1

Chain of Galectin-3 (P17931 whole entry): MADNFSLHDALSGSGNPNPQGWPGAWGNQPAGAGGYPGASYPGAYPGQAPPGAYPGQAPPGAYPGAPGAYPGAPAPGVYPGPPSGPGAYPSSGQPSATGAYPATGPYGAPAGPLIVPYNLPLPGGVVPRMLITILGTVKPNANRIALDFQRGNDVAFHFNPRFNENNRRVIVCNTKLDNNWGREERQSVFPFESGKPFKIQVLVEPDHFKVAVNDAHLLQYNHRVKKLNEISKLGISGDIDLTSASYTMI

| IC50 | SMILES |
| --- | --- |
| 0.0255 µM | CO[C@@H]1[C@@H](n2cc(-c3cc(F)c(Br)c(F)c3)nn2)[C@@H](O)[C@@H](CO)O[C@H]1C(=O)N(c1cc(Br)cc(C#N)c1)[C@H]1CCC[C@@H]1O [US20230348442, Example 1.6.5] |
| 0.0692 µM | CO[C@@H]1[C@@H](n2cc(-c3cc(F)cc(Br)c3)nn2)[C@@H](O)[C@@H](CO)O[C@H]1C(=O)N(c1cc(Br)cc(C#N)c1)[C@H]1CCC[C@@H]1O [US20230348442, Example 1.10.5] |
| 0.0294 µM | O=C([C@@H]1O[C@H](CO)[C@H](O)[C@H](n2cc(-c3cc(F)c(F)c(F)c3)nn2)[C@H]1O)N(c1cc(Cl)cc(Cl)c1)[C@H]1CCC[C@@H]1O [US20230348442, Example 1H.1.2] |
| 0.0199 µM | N#Cc1cc(Cl)cc(N(C(=O)[C@@H]2O[C@H](CO)[C@H](O)[C@H](n3cc(-c4cc(F)c(Cl)c(F)c4)nn3)[C@H]2O)[C@H]2CCC[C@@H]2O)c1 [US20230348442, Example 1H.5.4] |
| 0.111 µM | CO[C@@H]1[C@@H](n2cc(-c3cc(F)c(F)c(F)c3)nn2)[C@@H](O)[C@@H](CO)O[C@H]1C(=O)N(c1cc(C)cc(Br)c1)[C@H]1CC[C@@H]1O [US20230348442, Example 2.1.12] |
